From PubChem BioAssay (NCI)
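Where inhibition never reached the appropriate level, the endpoint shown equals the highest concentration tested. Otherwise, values were interpolated linearly from a five-concentration, 48-hour dose response in 96-well plates. TGI denotes the concentration required for complete inhibition of growth.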

Columns and labels:
Experiment in all cases: growth of human tumour cells (NCI), 48 h
[1] = tested on: OVCAR-3 ovarian
[2] = tested on: SK-OV-3 ovarian
[3] = tested on: SK-MEL-28 melanoma
[4] = tested on: MOLT-4 leukemia
[5] = tested on: UACC-62 melanoma
[6] = tested on: SNB-75 CNS
[7] = tested on: OVCAR-4 ovarian
[8] = tested on: NCI-H226 lung
[9] = tested on: KM12 colon
[10] = tested on: HCT-15 colon
[11] = tested on: SF-539 CNS
[12] = tested on: NCI-H460 lung
[13] = tested on: HL-60(TB) leukemia
[14] = tested on: M14 melanoma
[15] = tested on: HOP-92 NSCLC
[16] = tested on: HCT-116 colon
[17] = tested on: HS 578T breast
[18] = tested on: A549 NSCLC
[19] = tested on: A498 renal
[20] = tested on: MCF7 breast
[21] = tested on: HOP-62 NSCLC
[22] = tested on: NCI/ADR-RES ovarian
[23] = tested on: SK-MEL-5 melanoma
[24] = tested on: SR leukemia
[25] = tested on: PC-3 prostate
[26] = tested on: SF-268 CNS
[27] = tested on: UACC-257 melanoma
[28] = tested on: T-47D breast
[29] = tested on: RPMI-8226 leukemia
[30] = tested on: TK-10 renal
[31] = tested on: SF-295 CNS
[32] = tested on: MDA-MB-231 breast
[33] = tested on: SW-620 colon
[34] = tested on: ACHN renal
[35] = tested on: LOX IMVI melanoma
[36] = tested on: BT-549 breast
[37] = tested on: HCC-2998 colon
[38] = tested on: SNB-19 CNS
[39] = tested on: UO-31 renal
[40] = tested on: OVCAR-8 ovarian
[41] = tested on: 786-0 renal
[42] = tested on: OVCAR-5 ovarian
[43] = tested on: MALME-3M melanoma
[44] = tested on: SN12C renal
[45] = tested on: COLO 205 colon
[46] = tested on: HT29 colon
[47] = tested on: NCI-H522 lung
[48] = tested on: NCI-H23 lung
[49] = tested on: U251 CNS
[50] = tested on: DU-145 prostate
[51] = tested on: CAKI-1 renal
[52] = tested on: EKVX NSCLC
[53] = tested on: SK-MEL-2 melanoma
[54] = tested on: IGROV1 ovarian
[55] = tested on: MDA-N
[56] = tested on: RXF 393 renal
[57] = tested on: K-562 leukemia
[58] = tested on: MDA-MB-435
[59] = tested on: CCRF-CEM leukemia

N=c1ccn2c(n1)OC1C(OP(=O)(O)O)C(CO)OC12 (stereo unspecified)
TGI [1]: > 100 µM | TGI [2]: > 100 µM | TGI [3]: > 100 µM | TGI [4]: > 63.3 µM | TGI [5]: > 100 µM | TGI [6]: > 100 µM | TGI [7]: > 100 µM | TGI [8]: > 100 µM | TGI [9]: > 100 µM | TGI [10]: > 100 µM | TGI [11]: > 100 µM | TGI [12]: > 39.2 µM | TGI [13]: 13.6 µM | TGI [14]: > 45.8 µM | TGI [15]: > 100 µM | TGI [16]: > 100 µM | TGI [17]: > 100 µM | TGI [18]: > 100 µM | TGI [19]: > 100 µM | TGI [20]: > 100 µM | TGI [21]: > 100 µM | TGI [22]: > 100 µM | TGI [23]: > 100 µM | TGI [24]: > 51.1 µM | TGI [25]: > 100 µM | TGI [26]: > 100 µM | TGI [27]: > 100 µM | TGI [28]: > 100 µM | TGI [29]: > 100 µM | TGI [30]: > 100 µM | TGI [31]: > 100 µM | TGI [32]: > 100 µM | TGI [33]: > 100 µM | TGI [34]: 14 µM | TGI [35]: > 100 µM | TGI [36]: > 100 µM | TGI [37]: 96.4 µM | TGI [38]: > 100 µM | TGI [39]: > 100 µM | TGI [40]: > 100 µM | TGI [41]: > 100 µM | TGI [42]: > 100 µM | TGI [43]: > 100 µM | TGI [44]: > 100 µM | TGI [45]: > 100 µM | TGI [46]: > 100 µM | TGI [47]: > 100 µM | TGI [48]: > 100 µM | TGI [49]: > 100 µM | TGI [50]: > 100 µM | TGI [51]: > 100 µM | TGI [52]: > 100 µM | TGI [53]: > 100 µM | TGI [54]: > 100 µM | TGI [55]: > 100 µM | TGI [56]: > 100 µM | TGI [57]: > 100 µM | TGI [58]: > 100 µM

c1ccc(N/N=C2\CC(c3ccccc3)Oc3ccccc32)cc1 (stereo unspecified)
TGI [1]: > 100 µM | TGI [2]: > 100 µM | TGI [3]: > 100 µM | TGI [4]: > 100 µM | TGI [5]: > 100 µM | TGI [6]: 75.2 µM | TGI [7]: > 100 µM | TGI [8]: > 100 µM | TGI [9]: > 100 µM | TGI [10]: > 100 µM | TGI [11]: > 100 µM | TGI [12]: > 100 µM | TGI [13]: > 100 µM | TGI [14]: > 100 µM | TGI [15]: > 100 µM | TGI [16]: > 100 µM | TGI [17]: > 100 µM | TGI [18]: > 100 µM | TGI [19]: > 100 µM | TGI [20]: > 100 µM | TGI [21]: > 100 µM | TGI [22]: > 100 µM | TGI [23]: > 100 µM | TGI [24]: > 100 µM | TGI [25]: > 100 µM | TGI [59]: > 100 µM | TGI [26]: > 100 µM | TGI [27]: > 100 µM | TGI [28]: > 100 µM | TGI [30]: > 100 µM | TGI [31]: > 100 µM | TGI [32]: > 100 µM | TGI [33]: > 100 µM | TGI [34]: > 100 µM | TGI [35]: > 100 µM | TGI [36]: > 100 µM | TGI [37]: > 100 µM | TGI [38]: > 100 µM | TGI [39]: > 100 µM | TGI [40]: > 100 µM | TGI [41]: 66.8 µM | TGI [42]: > 100 µM | TGI [43]: > 100 µM | TGI [44]: > 100 µM | TGI [45]: > 100 µM | TGI [46]: > 100 µM | TGI [47]: 53.6 µM | TGI [48]: > 100 µM | TGI [49]: > 100 µM | TGI [50]: > 100 µM | TGI [51]: > 100 µM | TGI [52]: 83.9 µM | TGI [53]: > 100 µM | TGI [54]: > 100 µM | TGI [55]: > 100 µM | TGI [56]: 75.3 µM | TGI [57]: > 100 µM | TGI [58]: > 100 µM
